# According to publication PMC7816042, “Insights into the Structure-Activity Relationship of Glycosides as Positive Allosteric Modulators Acting on P2X7 Receptors” (Molecular Pharmacology, 2021):
# Columns and labels:
# human P2X7 [1] = target: T1, human P2X7 (Homo sapiens, UniProt Q99572); assay: YO-PRO-1 dye uptake assay in HEK-hP2X7 cells; type: cell-based; settings: for PAM effect on ATP dose-response curve / EC50 ratio / Maximum response (fold increase): 10 µM glycoside; for PAM effect on ATP dose-response curve: result in words; for EC50 ratio: average EC50 for ATP + vehicle of each set of experiments used; for Maximum response (fold increase): maximum response defined at 1 mM ATP
# T1 construct: expressed in transfected cells
# T1 sequence (Q99572 1-595): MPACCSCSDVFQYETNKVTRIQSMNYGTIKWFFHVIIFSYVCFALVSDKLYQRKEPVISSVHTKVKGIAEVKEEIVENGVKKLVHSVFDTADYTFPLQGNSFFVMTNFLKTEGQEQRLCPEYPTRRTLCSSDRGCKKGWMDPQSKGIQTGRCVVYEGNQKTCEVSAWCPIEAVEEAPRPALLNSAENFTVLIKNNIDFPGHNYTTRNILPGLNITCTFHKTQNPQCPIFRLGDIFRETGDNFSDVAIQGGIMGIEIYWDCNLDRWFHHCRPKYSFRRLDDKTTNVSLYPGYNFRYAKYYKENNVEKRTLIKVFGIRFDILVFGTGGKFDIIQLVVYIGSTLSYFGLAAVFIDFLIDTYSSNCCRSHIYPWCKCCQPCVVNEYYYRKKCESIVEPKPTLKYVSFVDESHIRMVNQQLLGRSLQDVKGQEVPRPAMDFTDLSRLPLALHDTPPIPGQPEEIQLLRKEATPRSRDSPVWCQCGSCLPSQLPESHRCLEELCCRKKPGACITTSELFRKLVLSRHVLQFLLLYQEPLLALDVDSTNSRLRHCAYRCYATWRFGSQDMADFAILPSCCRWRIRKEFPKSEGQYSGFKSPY
# Experimental: ATP-induced dye uptake experiments were performed as described previously ([Bidula et al., 2019b]). Briefly, HEK-hP2X7 cells were plated at 2 × 10^4 cells per well (100 μl per well) in complete medium and left overnight to attach to poly-D-lysine–coated 96-well plates. YO-PRO-1 iodide was prepared in a low divalent buffered solution ([…], 2 mM KCl, 13 mM D-glucose, 10 mM HEPES, 0.2 mM CaCl2 pH 7.3) to a final concentration of 2 μM. Medium was removed from the plate using a manual multichannel pipette and YO-PRO-1 containing buffer applied to wells (180 μl per well). […] A Flexstation 3 plate reader (Molecular Devices, Sunnyvale, CA) was used to record YO-PRO-1 fluorescence in HEK-hP2X7 for 300 seconds after the addition of ATP (at 10× final concentration) with/without ginsenoside compounds or vehicle (DMSO). Plates were allowed to warm up to 37°C for 10 minutes before initiating the recording. Baseline recordings were made for 40 seconds before compound addition using the Flexstation 3 fluidics system. YO-PRO-1 fluorescence was measured at 520 nm after excitation at 490 nm (auto cutoff at 495 nm), and the sample interval was 3.5 seconds. Flexstation settings were photomultiplier tube (PMT) medium, six reads per well, pipette height 170, and a rate of injection of 3. Data were acquired using Softmax Pro version 5.4 (Molecular Devices). To analyze the data, area under the dye uptake curve was calculated in Softmax Pro version 5 using zero baseline data with a lag time of 50 seconds (50–300 seconds).
# (§1) Results are expressed as means ± S.D. from the indicated number of experiments. For YO-PRO-1 dye uptake and intracellular calcium experiments, each independent experiment used triplicate wells, and the means of the replicates were collated and plotted. Technical replicates were used to ensure reliability of fluorescence values. […] Dose-response curves were plotted by a nonlinear regression fit with variable slope using GraphPad Prism software version 7. Half-maximal responses are expressed as EC50 values with 95% confidence intervals. These values were calculated from the collated data for each compound from three independent experiments. Statistical differences were determined by analysis of the data by one-way ANOVA followed by Dunnett’s multiple comparison test or Sidak’s multiple comparison test using GraphPad Prism version 7. P < 0.05 was the accepted minimum level of significance.
# THP-1 cells = assay: Cell viability assay (resazurin/Alamar blue) in THP-1 cells; type: cell-based, human; settings: 500 µM ATP
# Experimental: (§2) HEK-hP2X7 or THP-1 cells were seeded at 5 × 10^3 cells per well in a volume of 100 μl for 24 hours in 96-well plates (Nunclon Edge plates, catalog number 167425; Thermo Scientific). Cells were plated in DMEM:F12 medium or RPMI 1640 medium containing 1% FBS and penicillin/streptomycin for 24 hours in a humidified incubator at 37°C with a constant supply of 5% CO2. Edge wells of the plates were filled with autoclaved distilled water to prevent evaporation of media from wells containing cells. The compounds and ATP were made at 2× final concentration in 1% FBS DMEM:F12 and 100 μl added to the cells for 24 hours. After incubation, resazurin sodium salt (CAS 62758-13-8; Sigma Aldrich) at 0.1 mg/ml in sterile PBS was added to the plate (20 into 200 µl culture medium per well). Cells were incubated for a further 2 hours in a humidified incubator at 37°C with a supply of 5% CO2. A Flexstation 3 microplate reader was used to acquire data. Endpoint fluorescence data were measured using 570 nm excitation wavelength, 600 nm emission wavelength (cutoff at 590 nm), and three reads per well (PMT low). Data were analyzed by performing background correction through subtracting blank medium readings (without cells) from all samples and then normalizing each sample to medium treated cells (control treatment, 100%) as percentage of control.
# Results are expressed as means ± S.D. from the indicated number of experiments. For YO-PRO-1 dye uptake and intracellular calcium experiments, each independent experiment used triplicate wells, and the means of the replicates were collated and plotted. Technical replicates were used to ensure reliability of fluorescence values. Cell viability data were normalized to the vehicle control for each experiment after background correction had been performed. […] These values were calculated from the collated data for each compound from three independent experiments. Statistical differences were determined by analysis of the data by one-way ANOVA followed by Dunnett’s multiple comparison test or Sidak’s multiple comparison test using GraphPad Prism version 7. […]
# HEK-hP2X7 cells = assay: Cell viability assay (resazurin/Alamar blue) in HEK-hP2X7 cells; type: cell-based, human; settings: 24 hours
# Experimental: as §2
# Results are expressed as means ± S.D. from the indicated number of experiments. For YO-PRO-1 dye uptake and intracellular calcium experiments, each independent experiment used triplicate wells, and the means of the replicates were collated and plotted. Technical replicates were used to ensure reliability of fluorescence values. Cell viability data were normalized to the vehicle control for each experiment after background correction had been performed. Dose-response curves were plotted by a nonlinear regression fit with variable slope using GraphPad Prism software version 7. Half-maximal responses are expressed as EC50 values with 95% confidence intervals. These values were calculated from the collated data for each compound from three independent experiments. Statistical differences were determined by analysis of the data by one-way ANOVA followed by Dunnett’s multiple comparison test or Sidak’s multiple comparison test using GraphPad Prism version 7. P < 0.05 was the accepted minimum level of significance.
# [2] = target: T2, endogenous P2X7 in THP-1 cells (Homo sapiens, UniProt Q99572); assay: Fura-2 calcium measurements in THP-1 monocytes; type: cell-based; settings: 500 µM ATP co-applied with 10 µM glycoside
# T2 sequence (Q99572 1-394 limits assumed): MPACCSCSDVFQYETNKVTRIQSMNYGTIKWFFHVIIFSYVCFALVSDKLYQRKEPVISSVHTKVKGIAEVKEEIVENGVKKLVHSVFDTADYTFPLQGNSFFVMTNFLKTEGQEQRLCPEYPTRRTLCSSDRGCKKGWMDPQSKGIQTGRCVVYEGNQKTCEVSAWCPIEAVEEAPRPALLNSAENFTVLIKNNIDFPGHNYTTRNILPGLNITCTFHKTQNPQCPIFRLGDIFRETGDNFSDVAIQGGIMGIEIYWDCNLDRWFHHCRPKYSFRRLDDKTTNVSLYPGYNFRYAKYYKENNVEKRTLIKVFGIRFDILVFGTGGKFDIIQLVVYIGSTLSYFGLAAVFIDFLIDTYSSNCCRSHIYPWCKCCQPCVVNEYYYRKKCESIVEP
# Experimental: THP-1 cells were pelleted by centrifugation (300g, 5 minute), washed, and resuspended in Hanks’ balanced salt solution buffer containing 2 μM fura-2 AM (HelloBio) and 250 μM (±)-sulfinpyrazone. Cells were loaded for 1 hour in a waterbath at 37°C while shielded from light with foil. Loaded cells were washed once with 5 ml Hanks’ balanced salt solution to remove excess fura-2 AM dye. THP-1 cells were then resuspended, counted, and plated at 2 × 10^5 cells per well in a standard clear 96-well plate (NUNC 167008; Thermo Scientific) in low divalent assay buffer without Mg^2+ (145 mM NaCl, 2 mM KCl and 2 mM CaCl2, 13 mM glucose, 10 mM HEPES, pH 7.3) containing 250 μM (±)-sulfinpyrazone. The 10× concentration of agonist (ATP) was prepared in the same assay buffer. ATP was injected automatically into wells at 30 seconds in a Flexstation 3 microplate reader. Ratiometric data were acquired using 340 and 380 nm for excitation wavelengths, 520 nm as the emission wavelength, and six reads per well (PMT medium). Area under the curve was calculated using standard zero baseline normalization with a lag time 0–300 seconds using SoftMax Pro version 5.4 software.
# as §1
# human P2X7 [3] = target: T1, human P2X7; set-up: method as in Helliwell et al., 2015; settings: ref Helliwell et al., 2015; cited from earlier work
SMILES,Effect on ATP-induced calcium response [2],PAM effect on ATP dose-response curve (human P2X7 [1]; HEK-hP2X7),EC50 ratio (human P2X7 [1]),Maximum response (fold increase) (human P2X7 [1]),Cell viability in combination with ATP (HEK-hP2X7 cells),PAM activity at human P2X7 (human P2X7 [3]),also measured
"Nc1ncnc2c1ncn2[C@@H]1O[C@H](COP(=O)(O)OP(=O)(O)OP(=O)(O)O)[C@@H](O)[C@H]1O [ATP, reference compound]",–,–,–,–,–,–,"EC50 (human P2X7 [1]; average, n = 5 experiments, HEK-hP2X7, read-out: EC50 for ATP + vehicle (DMSO)): 219 µM; Cell viability after ATP (THP-1 cells; 24 hours): 73.3% ± 14.4%"
"Cl.Cl.O=C(CC12CC3CC(CC(C3)C1)C2)Nc1cccc2nc(NCCNCCO)ccc12 [AZ10606120, reference compound]",–,–,–,–,–,–,Antagonist effect on loss of viability by ATP + ginsenoside-F2 or 20(S)-Rg3 (HEK-hP2X7 cells; AZ10606120 pretreatment): prevented; Antagonist effect on ATP-induced loss of viability (THP-1 cells): lack of effect
"CC(C)=CCC[C@](C)(O)[C@H]1CC[C@]2(C)[C@@H]1[C@H](O)C[C@@H]1[C@@]3(C)CC[C@H](O[C@@H]4O[C@H](CO)[C@@H](O)[C@H](O)[C@H]4O[C@@H]4O[C@H](CO)[C@@H](O)[C@H](O)[C@H]4O)C(C)(C)[C@@H]3CC[C@]12C [Ginsenoside-20(S)-Rg3, 20(S)-ginsenoside-Rg3]",potentiated,positive modulator activity with a reduced EC50 for ATP and increased maximal response,1.8,2.4 fold,could reduce cell viability,–,–
CC(C)=CCCC(C)(OC1OC(CO)C(O)C(O)C1O)C1CCC2(C)C1C(O)CC1C3(C)CCC(O)C(C)(C)C3CCC12C (stereo not drawn) [Ginsenoside-CK],increased the peak response and the sustained elevation in [Ca^2+]i,mixed type I/II effects,–,2.4–4.4 fold,very effective at enhancing cell death,highest activity,Effect of AZ10606120 pretreatment on response to ATP + glycoside (P2X7 dependence) (human P2X7 [1]; 10 µM AZ10606120 pretreatment): abolished; Enhancement of ATP-induced cell death (THP-1 cells; 24 hours): could significantly enhance this ATP-induced cell death
"CC(C)=CCC[C@](C)(O[C@@H]1O[C@H](CO)[C@@H](O)[C@H](O)[C@H]1O)[C@H]1CC[C@]2(C)[C@@H]1[C@H](O)C[C@@H]1[C@@]3(C)CC[C@H](O[C@@H]4O[C@H](CO)[C@@H](O)[C@H](O)[C@H]4O)C(C)(C)[C@@H]3CC[C@]12C [Ginsenoside-F2, ginsenoside-F2]",potentiated,mixed type I/II effect,5.4,2.23 fold,could reduce cell viability,–,–
"CC(C)=CCC[C@](C)(O[C@@H]1O[C@H](CO)[C@@H](O)[C@H](O)[C@H]1O)[C@H]1CC[C@]2(C)[C@@H]1[C@H](O)C[C@@H]1[C@@]3(C)CC[C@H](O[C@@H]4O[C@H](CO)[C@@H](O)[C@H](O)[C@H]4O[C@@H]4O[C@H](CO)[C@@H](O)[C@H](O)[C@H]4O)C(C)(C)[C@@H]3CC[C@]12C [Ginsenoside-Rd, ginsenoside-Rd]",potentiated,mixed type I/II effects,3.8,2.77 fold,very effective at enhancing cell death,–,–
"CC(C)=CCC[C@](C)(O[C@@H]1O[C@H](CO[C@@H]2O[C@H](CO)[C@@H](O)[C@H](O)[C@H]2O)[C@@H](O)[C@H](O)[C@H]1O)[C@H]1CC[C@]2(C)[C@@H]1[C@H](O)C[C@@H]1[C@@]3(C)CC[C@H](O[C@@H]4O[C@H](CO)[C@@H](O)[C@H](O)[C@H]4O)C(C)(C)[C@@H]3CC[C@]12C [Gypenoside XVII, gypenoside XVII]",–,–,2.4,2.0 fold,neither gypenoside XVII nor 20(R)-Rg3 in combination with ATP affected cell viability,–,Maximum response (fold increase) (human P2X7 [1]; listed as gypenoside XVII): 2 fold
"CC(C)=CCC[C@](C)(O)[C@H]1CC[C@]2(C)[C@@H]1[C@H](O)C[C@@H]1[C@@]3(C)CC[C@H](O)C(C)(C)[C@@H]3CC[C@]12C [PPD, protopanaxadiol]",–,no effect on the ATP dose-response curve,–,–,–,no activity,–
CC(C)=CCC[C@](C)(O)[C@H]1CC[C@]2(C)[C@@H]1[C@H](O)C[C@@H]1[C@@]3(C)CC[C@H](O[C@@H]4O[C@H](CO)[C@@H](O)[C@H](O)[C@H]4O)C(C)(C)[C@@H]3CC[C@]12C [ginsenoside-Rh2],–,–,–,–,–,able to potentiate hP2X7 responses,–
